The source of these data is the supplement of paper PMC10307832.

Holding throughout (test): relative viability (nuclei count vs DMSO), 5 days (fraction); higher = more cells survive
Compound in one test: CCOC(=O)CCNc1cc(N2CCc3ccccc3CC2)nc(-c2ccccn2)n1 [GSK-J4]
In a few lines: (§1)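 Viability was read as treated-well nuclei divided by vehicle-well nuclei, using the median across plates. Lung cancer cell lines in 1536-well plates were kept overnight at 37 °C, pinned with five √10-spaced library-drug doses, and after 5 days were Hoechst-stained, imaged at 4× and counted in MetaXpress. Plates passed only with control CV below 25% and at least one doubling.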

Compound in a further test: CN1CCC(CC1)OC2=CC(=C(C=C2)NC3=NC=C4C(=N3)N(C(=O)N4C)C5CCCC5)OC [AZ3146]
A digest of the protocol: as §1

Compound in the test “GSK-J4 + Alpelisib”: CCOC(=O)CCNc1cc(N2CCc3ccccc3CC2)nc(-c2ccccn2)n1 [GSK-J4] + Cc1nc(NC(=O)N2CCC[C@H]2C(N)=O)sc1-c1ccnc(C(C)(C)C(F)(F)F)c1 [Alpelisib] (partner 2 µM)
In a few lines: (§2)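 Relative viability was taken as the ratio of nuclei in treated wells to nuclei in vehicle wells. Lung cancer cell lines in 1536-well plates received compounds by pin tool one day after seeding, either one drug alone or a fixed anchor-drug dose plus five library-drug doses (not always all listed) in √10 steps. Nuclei were counted on 4× images after 5 days of treatment, and values are medians of duplicate plates.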

Compound in the test “AZ3146 + Pemetrexed”: CN1CCC(CC1)OC2=CC(=C(C=C2)NC3=NC=C4C(=N3)N(C(=O)N4C)C5CCCC5)OC [AZ3146] + Nc1nc2[nH]cc(CCc3ccc(C(=O)N[C@@H](CCC(=O)O)C(=O)O)cc3)c2c(=O)[nH]1 [Pemetrexed] (partner 0.2 µM)
A digest of the protocol:
as §2

As to COR-L 105, the relative viability with GSK-J4 (0.5 µM) is 0.925; with GSK-J4 (1.581 µM) it was 0.864; with GSK-J4 (5 µM), 0.795; with GSK-J4 (15.81 µM) it was 0.949; in the test with GSK-J4 (50 µM), 0.861; with AZ3146 (0.08 µM), 0.82. In addition, the relative viability in the test with AZ3146 (0.253 µM) worked out at 0.874; with AZ3146 (0.8 µM), 0.939; with AZ3146 (2.53 µM), 0.825; with AZ3146 (8 µM), 0.504; with GSK-J4 + Alpelisib (first compound 0.5 µM), 1.11; with GSK-J4 + Alpelisib (first compound 1.581 µM), 0.99. Besides, the relative viability is 1.07 in the test with GSK-J4 + Alpelisib (first compound 5 µM); 0.912 with GSK-J4 + Alpelisib (first compound 15.81 µM); 1.16 in the test with GSK-J4 + Alpelisib (first compound 50 µM); 1.19 with AZ3146 + Pemetrexed (first compound 0.08 µM); 1.22 with AZ3146 + Pemetrexed (first compound 0.253 µM); 0.962 with AZ3146 + Pemetrexed (first compound 0.8 µM). Besides, the relative viability stood at 0.645 in the test with AZ3146 + Pemetrexed (first compound 2.53 µM) and 0.799 in the test with AZ3146 + Pemetrexed (first compound 8 µM).

EKVX: the relative viability with GSK-J4 (0.5 µM) is 0.998; with GSK-J4 (1.581 µM), 0.71; with GSK-J4 (5 µM), 1.03; with GSK-J4 (15.81 µM), 0.85; with GSK-J4 (50 µM), 0.898; in the test with AZ3146 (0.08 µM), 0.954. Further, the relative viability with AZ3146 (0.253 µM) came to 0.999; with AZ3146 (0.8 µM) it was 0.93; with AZ3146 (2.53 µM), 1; with AZ3146 (8 µM) it was 1.04; with GSK-J4 + Alpelisib (first compound 0.5 µM), 0.848; with GSK-J4 + Alpelisib (first compound 1.581 µM) it was 0.769. The relative viability came to 0.952 in the test with GSK-J4 + Alpelisib (first compound 5 µM); 0.824 with GSK-J4 + Alpelisib (first compound 15.81 µM); 0.776 in the test with GSK-J4 + Alpelisib (first compound 50 µM); 0.441 with AZ3146 + Pemetrexed (first compound 0.08 µM); 0.424 with AZ3146 + Pemetrexed (first compound 0.253 µM); 0.365 with AZ3146 + Pemetrexed (first compound 0.8 µM). Moreover, the figures for the relative viability in the test with AZ3146 + Pemetrexed (first compound 2.53 µM) and with AZ3146 + Pemetrexed (first compound 8 µM) were 0.389 and 0.422, respectively.

As to EMC-BAC-2, the relative viability with GSK-J4 (0.5 µM) was found to be 0.971; with GSK-J4 (1.581 µM), 0.909; with GSK-J4 (5 µM), 0.647; with GSK-J4 (15.81 µM) it was 0.882; with GSK-J4 (50 µM) it was 0.955; with AZ3146 (0.08 µM) it was 0.772. Moreover, the relative viability with AZ3146 (0.253 µM) was found to be 0.76; in the test with AZ3146 (0.8 µM) it was 1.07; in the test with AZ3146 (2.53 µM), 1.1; with AZ3146 (8 µM), 0.907; with GSK-J4 + Alpelisib (first compound 0.5 µM), 0.755; with GSK-J4 + Alpelisib (first compound 1.581 µM), 0.717. The relative viability with GSK-J4 + Alpelisib (first compound 5 µM) stood at 0.785; with GSK-J4 + Alpelisib (first compound 15.81 µM), 0.716; with GSK-J4 + Alpelisib (first compound 50 µM), 0.691; with AZ3146 + Pemetrexed (first compound 0.08 µM) it was 0.379; with AZ3146 + Pemetrexed (first compound 0.253 µM), 0.442; with AZ3146 + Pemetrexed (first compound 0.8 µM), 0.433. The relative viability with AZ3146 + Pemetrexed (first compound 2.53 µM) is 0.466; with AZ3146 + Pemetrexed (first compound 8 µM), 0.411.

On to EPLC-272H, for which the relative viability stood at 0.994 with GSK-J4 (0.5 µM); 0.678 with GSK-J4 (1.581 µM); 0.93 in the test with GSK-J4 (5 µM); 0.814 with GSK-J4 (15.81 µM); 0.734 in the test with GSK-J4 (50 µM); 0.789 in the test with AZ3146 (0.08 µM). In addition, the relative viability with AZ3146 (0.253 µM) was found to be 0.895; in the test with AZ3146 (0.8 µM), 0.92; with AZ3146 (2.53 µM), 0.992; in the test with AZ3146 (8 µM) it was 0.969; with GSK-J4 + Alpelisib (first compound 0.5 µM), 0.887; in the test with GSK-J4 + Alpelisib (first compound 5 µM), 0.845. Moreover, the relative viability with GSK-J4 + Alpelisib (first compound 15.81 µM) was 0.933; with GSK-J4 + Alpelisib (first compound 50 µM) it was 0.943; with AZ3146 + Pemetrexed (first compound 0.08 µM) it was 0.366; in the test with AZ3146 + Pemetrexed (first compound 0.253 µM), 0.369; with AZ3146 + Pemetrexed (first compound 0.8 µM), 0.37; with AZ3146 + Pemetrexed (first compound 2.53 µM) it was 0.341. Moreover, the relative viability with AZ3146 + Pemetrexed (first compound 8 µM) is 0.396.

On to H3255, for which the relative viability with GSK-J4 (0.5 µM) was found to be 0.997; with GSK-J4 (1.581 µM), 0.869; with GSK-J4 (5 µM), 0.91; in the test with GSK-J4 (15.81 µM), 0.811; in the test with GSK-J4 (50 µM) it was 0.854; in the test with AZ3146 (0.08 µM), 0.935. In addition, the relative viability in the test with AZ3146 (0.253 µM) was 0.902; with AZ3146 (0.8 µM) it was 1.01; with AZ3146 (2.53 µM) it was 1.09; with AZ3146 (8 µM), 0.981; in the test with GSK-J4 + Alpelisib (first compound 0.5 µM) it was 0.591; in the test with GSK-J4 + Alpelisib (first compound 1.581 µM), 0.64. For the same cell line, the relative viability with GSK-J4 + Alpelisib (first compound 5 µM) stood at 0.614; in the test with GSK-J4 + Alpelisib (first compound 15.81 µM), 0.593; with GSK-J4 + Alpelisib (first compound 50 µM), 0.531; in the test with AZ3146 + Pemetrexed (first compound 0.08 µM), 0.597; with AZ3146 + Pemetrexed (first compound 0.253 µM) it was 0.536; with AZ3146 + Pemetrexed (first compound 0.8 µM), 0.542. For the same cell line, the relative viability with AZ3146 + Pemetrexed (first compound 2.53 µM) was 0.6; with AZ3146 + Pemetrexed (first compound 8 µM), 0.574.

Turning to HARA, the relative viability in the test with GSK-J4 (0.5 µM) was determined as 1.06; with GSK-J4 (1.581 µM), 0.959; in the test with GSK-J4 (15.81 µM), 0.881; with GSK-J4 (50 µM), 1.05; with AZ3146 (0.08 µM), 0.808; in the test with AZ3146 (0.253 µM), 0.902. The relative viability with AZ3146 (0.8 µM) came out at 1.01; with AZ3146 (2.53 µM), 1.07; with AZ3146 (8 µM), 0.866; with GSK-J4 + Alpelisib (first compound 0.5 µM), 0.815; with GSK-J4 + Alpelisib (first compound 1.581 µM) it was 0.441; in the test with GSK-J4 + Alpelisib (first compound 15.81 µM), 0.785. Further, the relative viability with GSK-J4 + Alpelisib (first compound 50 µM) is 0.646; with AZ3146 + Pemetrexed (first compound 0.08 µM) it was 0.22; with AZ3146 + Pemetrexed (first compound 0.253 µM), 0.257; with AZ3146 + Pemetrexed (first compound 0.8 µM), 0.245; with AZ3146 + Pemetrexed (first compound 2.53 µM), 0.217; with AZ3146 + Pemetrexed (first compound 8 µM), 0.231.

As to HCC-15, the relative viability in the test with GSK-J4 (0.5 µM) was 0.929; in the test with GSK-J4 (1.581 µM) it was 0.716; with GSK-J4 (5 µM) it was 0.927; with GSK-J4 (15.81 µM), 0.895; in the test with GSK-J4 (50 µM), 0.767; with AZ3146 (0.08 µM), 0.98. Further, the relative viability in the test with AZ3146 (0.253 µM) is 1.05; with AZ3146 (0.8 µM) it was 0.993; with AZ3146 (2.53 µM), 1.03; in the test with AZ3146 (8 µM) it was 0.99; in the test with GSK-J4 + Alpelisib (first compound 0.5 µM) it was 0.909; in the test with GSK-J4 + Alpelisib (first compound 1.581 µM), 0.751. The relative viability in the test with GSK-J4 + Alpelisib (first compound 5 µM) came out at 0.912; with GSK-J4 + Alpelisib (first compound 15.81 µM) it was 0.868; in the test with GSK-J4 + Alpelisib (first compound 50 µM) it was 0.571; with AZ3146 + Pemetrexed (first compound 0.08 µM), 0.222; in the test with AZ3146 + Pemetrexed (first compound 0.253 µM) it was 0.22; with AZ3146 + Pemetrexed (first compound 0.8 µM) it was 0.221. Also, the relative viability in the test with AZ3146 + Pemetrexed (first compound 2.53 µM) was 0.224; with AZ3146 + Pemetrexed (first compound 8 µM), 0.207.
